Reference: the Bradley open melting point set (2014)
“And” between values parts separate entries of the source, which are not always exact repeats. Equal values may be shown once.

Compound	melting point
O=[N+]([O-])c1ccc(/C=C/c2ccccc2[N+](=O)[O-])cc1 [1-nitro-2-[(E)-2-(4-nitrophenyl)ethenyl]benzene]	139 °C
C=CCI [3-iodo-1-propene]	-99 °C
O=S(=O)(O)Cl [Sulfurochloridic acid]	-80 °C
COc1ccc(B(O)O)cn1 [6-methoxypyridine-3-boronic acid]	133 °C
Sc1ccccc1 [thiophenol]	-15 °C
CC(C)(C)c1cccc(O)c1 [3-tert-butylphenol]	45 °C
O=C(O)c1cc2cc(Br)ccc2c(Br)c1O [1,6-dibromo-2-hydroxynaphthalene-3-carboxylic acid]	251 °C
CC(=O)c1ccc(I)cc1 [1-(4-Iodophenyl)ethanone]	84.8 °C and 85.3 °C
CCCC(C)(COC(N)=O)COC(N)=O [Sowell]	104 °C
CCCC(=O)CC [3-hexanone]	-55 °C
OB(O)c1cccnc1F [2-fluoropyridine-3-boronic acid]	172 °C
Oc1ccc2ccccc2c1N=Nc1nccs1 [1-(2-thiazolylazo)-2-naphthol]	139 °C
CCC1=C(C)N=NC1C (stereo not given) [4-ethyl-3,5-dimethyl-1H-pyrazole]	43 °C
CCCCc1c2c(cc3c1-c1ccccc1OC3)CC(C)(C)CC2=O	87 °C
CC(=O)Oc1cccc(C(C)=O)c1 [3-acetoxy_acetophenone]	44 °C
Cc1cc(Br)cn(C)c1=O [5-bromo-1,3-dimethyl-2-pyridone]	106 °C
CC(O)CO (stereo not given) [1,2-propanediol]	-60 °C
O=Cc1cccc(O)c1O [2,3-dihydroxybenzaldehyde]	108 °C
CCCCCCCCCC(C)=O [2-undecanone]	12 °C
C=CCC1(CC(C)C)C(=O)NC(=O)NC1=O [butalbital]	138 °C
Oc1c(Cl)c(Cl)c(Cl)c(Cl)c1Cl [Pentachlorophenol]	190 °C
CCCCCCCCN [1-aminooctane]	0 °C
CC(=O)Oc1ccc(C(N)=O)cc1 [p-acetoxybenzamide]	179 °C

Compound	melting point
O=C(O)COc1ccc(CO)cc1 [4-(hydroxymethyl)phenoxyacetic acid]	112 °C
O=C(O)c1ccccc1Cl [2-Chlorobenzoic acid]	140 °C
Nc1cccc(C(=O)c2cccc(N)c2)c1 [3,3'-diaminobenzophenone]	150 °C
C[Si]1(C)O[Si](C)(C)O[Si](C)(C)O[Si](C)(C)O[Si](C)(C)O1	-44 °C
Sc1nc2ccccc2o1 [2-mercaptobenzoxazole]	192 °C
Nc1ccccc1C1C=c2ccccc2=N1 (stereo not given) [2-(1H-Indol-2-yl)anilin]	153 °C
COc1ccc([N+](=O)[O-])cc1 [4-nitroanisole]	52 °C
COc1ccc2c(c1)[C@@]13CCCC[C@@H]1[C@@H](C2)N(C)CC3 [dextromorphan]	110 °C
COc1ccc(C=O)cc1 [p-anisaldehyde]	1 °C
CCP(=O)(CC)CC [triethylphosphine oxide]	49 °C
CN1CCC[C@H]1c1cccnc1 [(S)-nicotine]	-79 °C
CCC(=O)c1cc(O)ccc1O [2',5'-dihydroxypropiophenone]	98 °C
CC(=O)O[C@@H]1CCC2(C)C(CCC3C2CCC2(C)C3CC[C@]2(O)/C=C/c2ccccc2)C1 (stereo not given in full)	162 °C
CC(O)CC(=O)O (stereo not given) [3-hydroxybutyric acid]	38 °C
COc1c(C)cc(B(O)O)cc1C [4-methoxy-3,5-dimethylbenzeneboronic acid]	237 °C
O=CC(=Cc1ccco1)c1ccccc1 [3-(2-furyl)-2-phenylpropenal]	59 °C
Cc1ccc(Br)cc1 [1-Bromo-4-methylbenzene]	28.5 °C
CC(C)(N)CO [2-Amino-2-methylpropan-1-ol]	30 °C
CC(=O)c1ccc(C#N)cc1 [4-acetylbenzonitrile]	58 °C
CCOC(=O)CCl [ethyl chloroacetate]	-26 °C
O=C(O)Cc1ccccc1O [2-Hydroxyphenylacetic acid]	149 °C
CC(=O)OCC1OC(Oc2ccc(C)cc2)C(OC(C)=O)C(OC(C)=O)C1OC(C)=O (stereo not given) [4-methylphenyl 2,3,4,6-tetra-O-acetylhexopyranoside]	126 °C

Now from value to compound:

melting point	Compound
16.7 °C	CC(=O)O [Acetic acid]
158 °C	CC(C)(C)NCC(O)c1ccc(O)c(CO)c1 (stereo not given) [Salbutamol]
110 °C	CC(C(=O)O)c1ccc(-c2ccccc2)c(F)c1 (stereo not given) [flurbiprofen]
-9.6 °C	CCCCCCCCCCCC [Dodecane]
146 °C	Cn1cc[nH]c1=S [Methimazole]
69 °C	CCCCOC(=O)c1ccc(O)cc1 [butyl 4-hydroxybenzoate]
62 °C	Fc1cccc(P(c2cccc(F)c2)c2cccc(F)c2)c1 [tris(3-fluorophenyl)phosphine]
177 °C	OC(c1ccccc1)(c1ccccc1)C(O)(c1ccccc1)c1ccccc1 [benzopinacol]
102 °C	Nc1ccccc1N [o-phenylenediamine]
258 °C	NCC(=O)NCC(=O)O [Glycylglycine]
265 °C	Nc1nc2c(ncn2COCCO)c(=O)[nH]1 [acyclovir]
147 °C	O=C(O)C(O)C(O)C(=O)O (stereo not given) [tartaric acid]
-63 °C	CC(C)c1cccc(C(C)C)c1 [m-diisopropylbenzene]
28 °C	CCCCCCCCCCCCCCCCCC [N-octadecane]
72 °C	CCC1=Nc2ccccc2C1(C)C(=O)OC (stereo not given) [methyl 2-ethyl-3-methyl-3H-indole-3-carboxylate]
54 °C	CCOC(=O)C(C#N)=C(SC)SC [Ethyl 2-cyano-3,3-bis(methylsulfanyl)acrylate]
-85 °C	CC(C)CN [isobutylamine]
236 °C	Cc1ccnc(NS(=O)(=O)c2ccc(N)cc2)n1 [Sulfamerazine]
51 °C	N#Cc1ccc(Cc2ccccc2)cc1 [p-benzyl_benzonitrile]
93 °C	c1ccc(CN(Cc2ccccc2)Cc2ccccc2)cc1 [tribenzylamine]
31 °C	CCOC(=O)c1ccc(CBr)cc1 [ethyl 4-(bromomethyl)benzoate]
158 °C	c1ccc2nc3ccccc3nc2c1 [Phenazine]
45 °C	CCN1C(=O)C=CC1=O [N-ethylmaleimide]
110 °C	Cc1ccc(-n2c(C)cc(C=O)c2C)cc1 [OSM-S-29]
110 °C	O=C[C@H](O)[C@H](O)[C@@H](O)CO [L-lyxose]
204 °C	COc1cccc2c1C(=O)c1c(O)c3c(c(O)c1C2=O)C[C@@](O)(C(=O)CO)C[C@@H]3O[C@H]1C[C@H](N)[C@H](O)[C@H](C)O1 [Doxorubicin]
-106 °C	[2H]C1([2H])OC([2H])([2H])C([2H])([2H])C1([2H])[2H] [(~2~H_8_)Tetrahydrofuran]
186 °C	CC(C)(Oc1ccc(CCNC(=O)c2ccc(Cl)cc2)cc1)C(=O)O [Bezafibrate]
257 °C	O=C2/N=C(\Nc1n(cnc12)COCCO)N [acyclovir]
122 °C	IC(I)I [Iodoform]
